Test results as given in US20230130766A1 (SALK INSTITUTE FOR BIOLOGICAL STUDIES, priority 2020, published 2023).

Assays:
ULK1 = biological target: T1, ULK1 (Homo sapiens, UniProt O75385); assay: ULK1 inhibition assay; type: biochemical; details: * = tested as a mixture of regioisomers
T1 sequence (O75385 1-1050): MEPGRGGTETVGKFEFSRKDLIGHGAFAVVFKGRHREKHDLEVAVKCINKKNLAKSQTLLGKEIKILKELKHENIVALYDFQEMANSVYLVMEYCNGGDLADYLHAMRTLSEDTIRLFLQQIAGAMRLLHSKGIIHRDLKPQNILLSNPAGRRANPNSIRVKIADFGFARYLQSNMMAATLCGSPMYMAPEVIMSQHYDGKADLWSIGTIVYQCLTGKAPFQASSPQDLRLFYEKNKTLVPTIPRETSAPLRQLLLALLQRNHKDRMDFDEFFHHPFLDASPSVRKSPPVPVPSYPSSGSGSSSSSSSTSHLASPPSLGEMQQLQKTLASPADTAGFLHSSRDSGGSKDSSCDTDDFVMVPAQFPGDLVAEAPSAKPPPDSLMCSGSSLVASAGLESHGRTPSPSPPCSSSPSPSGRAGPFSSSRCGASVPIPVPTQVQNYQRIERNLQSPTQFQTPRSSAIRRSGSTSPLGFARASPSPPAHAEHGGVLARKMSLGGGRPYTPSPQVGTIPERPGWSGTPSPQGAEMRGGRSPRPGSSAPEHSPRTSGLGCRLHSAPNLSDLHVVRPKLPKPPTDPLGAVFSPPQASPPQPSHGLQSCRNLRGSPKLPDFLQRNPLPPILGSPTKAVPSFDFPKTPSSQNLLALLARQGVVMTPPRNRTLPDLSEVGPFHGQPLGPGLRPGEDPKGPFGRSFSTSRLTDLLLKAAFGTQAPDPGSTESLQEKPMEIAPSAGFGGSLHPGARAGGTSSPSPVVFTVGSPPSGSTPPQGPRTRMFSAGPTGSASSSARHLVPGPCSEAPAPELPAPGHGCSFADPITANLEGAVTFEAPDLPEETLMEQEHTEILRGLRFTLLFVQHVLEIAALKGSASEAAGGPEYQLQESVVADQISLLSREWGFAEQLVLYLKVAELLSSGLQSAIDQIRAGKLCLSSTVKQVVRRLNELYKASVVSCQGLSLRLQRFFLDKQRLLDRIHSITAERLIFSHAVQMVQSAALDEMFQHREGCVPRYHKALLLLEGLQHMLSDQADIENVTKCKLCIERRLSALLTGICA

A549 cells [1] = assay: A549 xenografts, ULK inhibitor alone and in combination with carboplatin; type: in vivo, nude mice
Experimental: (§1) A549 cells (5M cells) were injected bilaterally into the flanks of thirty-six nude mice to create tumor xenografts in order to assess the efficacy of Compound 14 in treating non-small cell lung cancer tumors both alone and in combination with carboplatin, the current standard of care therapy for non-small cell lung cancer. After 11 days of letting tumor cells proliferate (at which point tumors were ˜50 mm^3 in volume), administration of carboplatin, Compound 14, or combinations began. One cohort of six mice received 20 mg/kg twice daily doses of Compound 14 alone, one cohort of six mice received 30 mg/kg twice daily doses of Compound 14 alone, one cohort of six mice received 25 mg/kg doses of carboplatin every three days, one cohort of six mice received 20 mg/kg twice daily doses of Compound 14 in conjunction with 25 mg/kg doses of carboplatin every three days, one cohort of six mice received 30 mg/kg twice daily doses of Compound 14 in conjunction with 25 mg/kg doses of carboplatin every three days, and the remaining six mice were treated with vehicle. Treatment and monitoring was continued until day 53 post inoculation of tumor cells (42 days of treatment).

[2] = test system: phosphorylated ATG13 (P-ATG); assay: Western blot analysis of A549 xenograft tumors; type: in vivo, nude mice; details: A549 xenograft tumors at end of study
Experimental: as §1
At the end of the study, Western blot analysis of the tumors from vehicle and Compound 14 monotherapy cohorts was analyzed.

A549 cells [3] = assay: A549 xenograft large tumors, ULK inhibitor alone versus carboplatin; type: in vivo, nude mice; details: A549 large tumors; each Compound 14 cohort: 20 mg/kg twice daily, 30 mg/kg twice daily, 40 mg/kg once daily; 32 days
Experimental: A549 cells (5M cells) were injected bilaterally into the flanks of forty-six nude mice to create tumor xenografts in order to assess the efficacy of Compound 14 in treating larger non-small cell lung cancer tumors compared to carboplatin, the current standard of care therapy for non-small cell lung cancer. After 40 days of letting tumor cells proliferate (at which point tumors were over 200 mm^3 in volume), administration of carboplatin or Compound 14 was initiated. One cohort of twelve mice received 20 mg/kg twice daily doses of Compound 14, one cohort of ten mice received 30 mg/kg twice daily doses of Compound 14, one cohort of seven mice received 25 mg/kg doses of carboplatin every three days, one cohort of seven mice received 40 mg/kg once daily doses of Compound 14, and the remaining ten mice were treated with vehicle. Treatment and monitoring was continued until day 72 post inoculation of tumor cells (32 days of treatment).

[4] = test system: ULK1, phosphorylated ATG13; assay: Western blot analysis of MIA PaCa-2 xenograft tumors; type: in vivo, nude mice; details: MIA PaCa-2 xenograft tumors at end of experiment, 20 mg/kg twice daily
Experimental: MIA PaCa-2 cells were injected bilaterally into the flanks of nude mice to create tumor xenografts in order to assess the efficacy of Compound 14 in treating pancreatic cancer tumors compared to gemcitabine, a current standard of care therapy for pancreatic cancer. After 3 days of letting tumor cells proliferate (at which point tumors were ˜100 mm^3 in volume), administration of gemcitabine or Compound 14 was initiated. One cohort received 20 mg/kg twice daily doses of Compound 14, one cohort received gemcitabine, and the remaining cohort was treated with vehicle. Treatment and monitoring were continued until day 42 post inoculation of tumor cells (30 days of treatment).

MIA PaCa-2 cells = assay: MIA PaCa-2 xenografts, ULK inhibitor alone and in combination with trametinib; type: in vivo, nude mice; details: day 25
Experimental: MIA PaCa-2 cells were injected bilaterally into the flanks nude mice to create tumor xenografts in order to assess the efficacy of Compound 14 in treating pancreatic cancer tumors alone and in combination with trametinib, an MEK inhibitor and current standard of care therapy for the treatment of pancreatic cancer. After letting tumor cells proliferate to the point where tumors had reach ˜300 mm^3 in volume, one cohort of mice was administered 20 mg/kg daily doses of Compound 14, one cohort of mice was administered 30 mg/kg daily doses of Compound 14, one cohort of mice was administered 1 mg/kg daily doses of trametinib, one cohort of mice was administered 1 mg/kg daily doses of trametinib in combination with 20 mg/kg daily doses of Compound 14, one cohort of mice was administered 1 mg/kg daily doses of trametinib in combination with 30 mg/kg daily doses of Compound 14, and the remaining cohort of mice was administered vehicle alone. Treatment and monitoring were continued for 25 days.

IC50 (ULK1): < 0.2 µM
Compound: CNC(=O)c1ccccc1Nc1nc(Nc2cc(OC)c(OC)c(OC)c2)ncc1Br [Compound 14]
final tumor average volume (A549 cells [1]; 20 mg/kg twice daily alone, day 53): ~150 mm^3
average tumor mass at the end of the study (A549 cells [1]; 30 mg/kg twice daily alone, 42 days of treatment): smallest tumors
tumor volume at the end of the study (A549 cells [1]; 30 mg/kg twice daily alone, day 53): ~50 mm^3
average tumor mass at the end of the study (A549 cells [1]; both combinations: Compound 14 20 or 30 mg/kg twice daily with carboplatin 25 mg/kg every three days, 42 days): smallest tumors
tumor volume at the end of the study (A549 cells [1]; both combinations: Compound 14 20 or 30 mg/kg twice daily with carboplatin 25 mg/kg every three days, day 53): ~50 mm^3
tumor growth compared to the control (A549 cells [1]; monotherapy: carboplatin 25 mg/kg every three days, Compound 14 20 mg/kg twice daily): markedly reduced growth compared to the control
phosphorylated ATG13 in tumors (Western blot) ([2]; 20 mg/kg twice daily monotherapy): some residual phosphorylated ATG13
phosphorylated ATG13 in tumors (Western blot) ([2]; 30 mg/kg twice daily monotherapy): almost total elimination of phosphorylated ATG13
tumor growth compared with the start of treatment (A549 cells [3]): little to no growth, or even a decrease in tumor volume
ULK1 levels in tumor (Western blot) [4]: reduced ULK1 levels compared to vehicle treated
levels of phosphorylated ATG13 in tumor (Western blot) [4]: reduced levels of phosphorylated ATG13
total levels of ATG13 in tumor (Western blot) ([4]; versus vehicle): comparable
final tumor size (average) (MIA PaCa-2 cells; 20 mg/kg daily alone): ~1000 mm^3
average tumor mass at the end of the study (MIA PaCa-2 cells; both combinations: trametinib 1 mg/kg daily with Compound 14 20 or 30 mg/kg daily): substantially less tumor mass compared to control and each mono-therapy
